According to article PMC6461495 (ACS infectious diseases, 2019):

Tested on: synchronous late-stage P. falciparum iRBC
Assay type: cell-based, Plasmodium falciparum CS2
Settings: late-stage iRBC, 1, 2, 5, 10, 15 or 20 μM, 24 h post-treatment, flow cytometry

FAM-βAla-ILGST*LKG*AQQTSAFLK (sidechain bridge or staple) [JDD scramble]
effect on parasite viability at any concentration tested: no effect on parasite viability
